Data: patent US20250188092A1, “RIFAMYCIN ANALOGS” (THE REGENTS OF THE UNIVERSITY OF MICHIGAN, priority 2021, published 2025)
In brackets after ≈: the same amount, converted by molar mass.

Assays:
DPX2 cells = conditions: for DPX2 Viability @ 6.25 μM: 24 h; for DPX2 Viability @ 25 μM: human
MTB H37Rv ATCC 27294 = test: MIC, microplate Alamar Blue assay (MABA); assay type: cell-based, Mycobacterium tuberculosis; conditions: for MIC90 / MIC: Mycobacterium tuberculosis, MTB H37Rv ATCC 27294, microplate Alamar Blue assay, lowest concentration giving ≥90% reduction in fluorescence; for MIC: read-out: MIC90 MABA
VERO cells (ATCC CRL-81) = test: Vero cell toxicity; assay type: cell-based; conditions: Chlorocebus sabaeus, Vero; 72 hours exposure
Protocol: Cytotoxicity for a mammalian cell line was determined by exposing VERO cells (ATCC CRL-81) to serial dilutions of test compounds for 72 hours, followed by addition of resazurin and measurement of fluorescence after 4 hours incubation (Choules, et al., Antimnicrob. Agents Chemother. 2019, 63, e02204-02218).

SMILES | DPX2 Viability @ 6.25 μM (DPX2 cells) [%] | DPX2 Viability @ 25 μM (DPX2 cells) [%] | MIC90 MABA Rel to RMP (MTB H37Rv ATCC 27294) | MIC90 (MTB H37Rv ATCC 27294) [µM] | IC50 (VERO cells (ATCC CRL-81)) [µM] | MIC (MTB H37Rv ATCC 27294) [µM]
CCC(=O)N1CCN(c2cc(OCc3ccc(CN4CCOCC4)cc3)c3nc4c5c6c7c(C)c(O)c5c(=O)c(c-4oc3c2)NC(=O)/C(C)=C\C=C\[C@H](C)[C@H](O)[C@@H](C)[C@@H](O)[C@@H](C)[C@H](OC(C)=O)[C@H](C)[C@@H](OC)/C=C/O[C@@](C)(O7)C6=O)CC1 [Compound 17g, (7S,9E,11S,12R,13S,14R,15R,16R,17S,18S,19E,21Z)-2,15,17-Trihydroxy-11-methoxy-3,7,12,14,16,18,22-heptamethyl-32-({4-[(morpholin-4-yl)methyl]phenyl}methoxy)-6,23,37-trioxo-30-(4-propanoylpiperazin-1-yl)-8,27,38-trioxa-24,34-diazahexacyclo-[23.11.1.1^4,7.0^5,36.0^26,35.0^28,33]octatriaconta-1(36)2,4,9,19,21,25,28,30,32,34-undecaen-13-yl acetate] | 117 | 56 | 0.4 | 0.012 | > 10 | –
CO[C@H]1/C=C/O[C@@]2(C)Oc3c(C)c(O)c4c(=O)c(c5oc6cc(N7CCN(C8CCN(C)CC8)CC7)cc(OCc7ccc(CN8CCOCC8)cc7)c6nc-5c4c3C2=O)NC(=O)/C(C)=C\C=C\[C@H](C)[C@H](O)[C@@H](C)[C@@H](O)[C@@H](C)[C@H](OC(C)=O)[C@@H]1C [Compound 17h, (7S,9E,11S,12R,13S,14R,15R,16R,17S,18S,19E,21Z)-2,15,17-trihydroxy-11-methoxy-3,7,12,14,16,18,22-heptamethyl-30-[4-(1-methylpiperidin-4-yl)piperazin-1-yl]-32-{[4-(morpholin-4-ylmethyl)phenyl]methoxy}-6,23,37-trioxo-8,27,38-trioxa-24,34-diazahexacyclo-[23.11.1.1^4,7.0^5,36.0^26,35.0^28,33]octatriaconta-1,3,5(36)9,19,21,25,28,30,32,34-undecaen-13-yl acetate] | 94 | 83 | 1.3 | 0.035 | > 10 | –
CO[C@H]1/C=C/O[C@@]2(C)Oc3c(C)c(O)c4c(=O)c(c5oc6cc(N7CCN(CC(=O)O)CC7)cc(OCc7ccc(CN8CCOCC8)cc7)c6nc-5c4c3C2=O)NC(=O)/C(C)=C\C=C\[C@H](C)[C@H](O)[C@@H](C)[C@@H](O)[C@@H](C)[C@H](OC(C)=O)[C@@H]1C [Compound 17i] | 106 | 100 | 1.0 | – | > 10 | 0.026 (≈ 0.0294 µg/mL)
CO[C@H]1/C=C/O[C@@]2(C)Oc3c(C)c(O)c4c(=O)c(c5oc6cc(N7CCS(=O)(=O)CC7)cc(OCc7ccc(CN8CCOCC8)cc7)c6nc-5c4c3C2=O)NC(=O)/C(C)=C\C=C\[C@H](C)[C@H](O)[C@@H](C)[C@@H](O)[C@@H](C)[C@H](OC(C)=O)[C@@H]1C [Compound 17j, (7S,9E,11S,12R,13S,14R,15R,16R,17S,18S,19E,21Z)-30-(1,1-dioxothiomorpholin-4-yl)-2,15,17-trihydroxy-11-methoxy-3,7,12,14,16,18,22-heptamethyl-32-([4-(morpholin-4-ylmethyl)phenyl]methoxy)-6,23,37-trioxo-8,27,38-trioxa-24,34-diazahexacyclo-[23.11.1.1^4,7.0^5,36.0^26,35.0^28,33]octatriaconta-1,3,5(36)9,19,21,25,28,30,32,34-undecaen-13-yl acetate] | 2 | 126 | – | – | > 10 | > 0.01
CO[C@H]1/C=C/O[C@@]2(C)Oc3c(C)c(O)c4c(=O)c(c5oc6cc(N7CCC(C(=O)O)CC7)cc(OCc7ccc(CN8CCOCC8)cc7)c6nc-5c4c3C2=O)NC(=O)/C(C)=C\C=C\[C@H](C)[C@H](O)[C@@H](C)[C@@H](O)[C@@H](C)[C@H](OC(C)=O)[C@@H]1C [Compound 17k] | 131 | 34 | 11 | – | > 10 | 0.3 (≈ 0.335 µg/mL)
CO[C@H]1/C=C/O[C@@]2(C)Oc3c(C)c(O)c4c(=O)c(c5oc6cc(N7CCN(C(=O)c8ccccc8)CC7)cc(OCc7ccc(CN8CCOCC8)cc7)c6nc-5c4c3C2=O)NC(=O)/C(C)=C\C=C\[C@H](C)[C@H](O)[C@@H](C)[C@@H](O)[C@@H](C)[C@H](OC(C)=O)[C@@H]1C [Compound 17m, (7S,9E,11S,12R,13S,14R,15R,16R,17S,18S,19E,21Z)-30-(4-benzoylpiperazin-1-yl)-2,15,17-trihydroxy-1-methoxy-3,7,12,14,16,18,22-heptamethyl-32-{[4-(morpholin-4-ylmethyl)phenyl]methoxy}-6,23,37-trioxo-8,27,38-trioxa-24,34-diazahexacyclo-[23.11.1.1^4,7.0^5,36.0^26,35.0^28,33]octatriaconta-1,3,5(36)9,19,21,25,28,30,32,34-undecaen-13-yl acetate] | 89 | 78 | 0.34 | 0.017 | > 10 | –
CO[C@H]1/C=C/O[C@@]2(C)Oc3c(C)c(O)c4c(=O)c(c5oc6cc(N7CCN(C(=O)c8ccncc8)CC7)cc(OCc7ccc(CN8CCOCC8)cc7)c6nc-5c4c3C2=O)NC(=O)/C(C)=C\C=C\[C@H](C)[C@H](O)[C@@H](C)[C@@H](O)[C@@H](C)[C@H](OC(C)=O)[C@@H]1C [Compound 17n, 7S,9E,11S,12R,13S,14R,15R,16R,17S,18S,19E,21Z)-2,15,17-trihydroxy-11-methoxy-3,7,12,14,16,18,22-heptamethyl-32-{[4-(morpholin-4-ylmethyl)phenyl]methoxy}-6,23,37-trioxo-30-{4-[(pyridin-4-yl)carbonyl]piperazin-1-yl}-8,27,38-trioxa-24,34-diazahexacyclo[23.11.1.1^4,7.0^5,36.0^26,35.0^28,33]octatriaconta-1,3,5(36)9,19,21,25,28,30,32,34-undecaen-13-yl acetate] | 102 | 98 | 1.5 | 0.073 | > 10 | –
CO[C@H]1/C=C/O[C@@]2(C)Oc3c(C)c(O)c4c(=O)c(c5oc6cc(N7CCOC(CN(C)C)C7)cc(OCc7ccc(CN8CCOCC8)cc7)c6nc-5c4c3C2=O)NC(=O)/C(C)=C\C=C\[C@H](C)[C@H](O)[C@@H](C)[C@@H](O)[C@@H](C)[C@H](OC(C)=O)[C@@H]1C (stereo partly drawn) [Compound 17o, (7S,9E,11S,12R,13S,14R,15R,16R,17S,18S,19E,21Z)-30-{2-[(dimethylamino)methyl]morpholin-4-yl}-2,15,17-trihydroxy-11-methoxy-3,7,12,14,16,18,22-heptamethyl-32-{[4-(morpholin-4-ylmethyl)phenyl]methoxy}-6,23,37-trioxo-8,27,38-trioxa-24,34-diazahexacyclo[23.11.1.1^4,7.0^5,36.0^26,35.0^28,33]octatriaconta-1,3,5(36)9,19,21,25,28,30,32,34-undecaen-13-yl acetate] | 96 | 42 | 1.1 | 0.055 | > 10 | –
CO[C@H]1/C=C/O[C@@]2(C)Oc3c(C)c(O)c4c(=O)c(c5oc6cc(N7CCN(CC(C)C)CC7)cc(OCc7ccc(CN8CCN(C)CC8)cc7)c6nc-5c4c3C2=O)NC(=O)/C(C)=C\C=C\[C@H](C)[C@H](O)[C@@H](C)[C@@H](O)[C@@H](C)[C@H](OC(C)=O)[C@@H]1C [Compound 17p, (7S,9E,11S,12R,13S,14R,15R,16R,17S,18S,19E,21Z)-2,15,17-trihydroxy-11-methoxy-3,7,12,14,16,18,22-heptamethyl-32-({4-[(4-methylpiperazin-1-yl)methyl]phenyl}methoxy)-30-[4-(2-methylpropyl)piperazin-1-yl]-6,23,37-trioxo-8,27,38-trioxa-24,34-diazahexacyclo-[23.11.1.1^4,7.0^5,36.0^26,35.0^28,33]octatriaconta-1,3,5(36)9,19,21,25,28,30,32,34-undecaen-13-yl acetate] | 116 | 80 | – | 0.0094 | > 10 | –
CO[C@H]1/C=C/O[C@@]2(C)Oc3c(C)c(O)c4c(=O)c(c5oc6cc(N7CCC(C(=O)O)CC7)cc(OCc7ccc(CN8CCN(C)CC8)cc7)c6nc-5c4c3C2=O)NC(=O)/C(C)=C\C=C\[C@H](C)[C@H](O)[C@@H](C)[C@@H](O)[C@@H](C)[C@H](OC(C)=O)[C@@H]1C [Compound 17q, 1-[(7S,9E,11S,12R,13S,14R,15R,16R,17S,18S,19E,21Z)-13-(acetyloxy)-2,15,17-trihydroxy-11-methoxy-3,7,12,14,16,18,22-heptamethyl-32-({4-[(4-methylpiperazin-1-yl)methyl]phenyl}methoxy)-6,23,37-trioxo-8,27,38-trioxa-24,34-diazahexacyclo-[23.11.1.1^4,7.0^5,36.0^26,35.0^28,33]-octatriaconta-1,3,5(36)9,19,21,25,28,30,32,34-undecaen-30-yl]piperidine-4-carboxylic acid] | 100 | 98 | 16 | 0.415 (≈ 0.469 µg/mL) | > 10 | –
